SMILES strings stand for the structures.

In the assay the test system is Vaccinia-infected cells, mCherry/Venus stage reporter fluorescence. Briefly: inhibition of vaccinia stage-reporter fluorescence – cell-based, dry powder, dose response (AID 1053166).
As to `Cc1ccc(-c2ccc(CN(C)C[C@@H]3Oc4cc(C#C[C@@H](C)O)ccc4S(=O)(=O)N([C@@H](C)CO)C[C@@H]3C)cc2)cc1`, the concentration at half-maximal activity (AC50) (usually the concentration giving half of the maximal activity seen) is 1790 nM.
Under `Cc1cccc(-c2ccc(CN(C)C[C@@H]3Oc4cc(C#C[C@@H](C)O)ccc4S(=O)(=O)N([C@@H](C)CO)C[C@@H]3C)cc2)c1` stands 2370 nM; under `C[C@@H](O)C#Cc1ccc2c(c1)O[C@@H](CN(C)Cc1ccc(-c3ccccc3Cl)cc1)[C@@H](C)CN([C@@H](C)CO)S2(=O)=O`, 992 nM; under `Cc1ccccc1-c1ccc(CN(C)C[C@@H]2Oc3cc(C#C[C@@H](C)O)ccc3S(=O)(=O)N([C@@H](C)CO)C[C@@H]2C)cc1`, 1150 nM.
